From paper PMC4128046, “Effect of a toggle switch mutation in TM6 of the human adenosine A3 receptor on Gi protein-dependent signalling and Gi-independent receptor internalization” (British Journal of Pharmacology, 2014) come the findings set out here.

The target in experiment [1] is T1, A3 W243F-YFP (Homo sapiens, UniProt P0DMS8, W243F).
T1 construct: Full length A3 W243F-YFP was excised and subcloned into a native pcDNA3.1 vector; expressed in transfected cells
T1 sequence (P0DMS8 1-318 W243F): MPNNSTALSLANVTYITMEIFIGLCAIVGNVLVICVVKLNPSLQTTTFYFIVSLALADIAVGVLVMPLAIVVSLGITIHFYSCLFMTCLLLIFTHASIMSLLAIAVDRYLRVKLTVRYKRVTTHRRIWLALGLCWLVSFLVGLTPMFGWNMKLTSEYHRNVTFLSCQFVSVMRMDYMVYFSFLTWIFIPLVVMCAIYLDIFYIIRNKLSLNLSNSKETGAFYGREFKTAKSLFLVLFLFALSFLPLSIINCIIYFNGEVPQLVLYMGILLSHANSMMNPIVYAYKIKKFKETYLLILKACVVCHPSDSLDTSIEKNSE
Nature of the experiment: ERK1/2 phosphorylation assay (AlphaScreen SureFire), A3 W243F-YFP. The experiment is classed as cell-based. The protocol:
Normal growth medium was replaced with serum-free medium for at least 4 h before analysis. Levels of ERK1/2 phosphorylation were measured using the AlphaScreen SureFire p-ERK assay kit (PerkinElmer). […] Medium was removed from each well and replaced with 40 μL SureFire lysis buffer. After shaking for 5 min, a 1:80:20:120 v v^−1 dilution of AlphaScreen beads : lysate : activation buffer : reaction buffer in a 5.5 μL total volume was transferred to a white opaque 384-well proxiplate in diminished light. After 2 h of incubation in the dark at room temperature, the fluorescence signal was measured with an EnVision plate reader (PerkinElmer) using standard AlphaScreen settings.
A basal and FSK control was included in each separate concentration-response CRE-SPAP gene transcription assay and cAMP accumulation assay to allow the responses in each cell line to be expressed as an inhibition of FSK-stimulated SPAP production.

In experiment [2] the target is T1, A3 W243F-YFP. The experiment in a line: Fluorescence-based competition binding assay with CA200645, A3 W243F-YFP. Particulars: A3 W243F-YFP cells, 25 nM CA200645, 60 min, 37°C. The protocol: On the day of analysis, normal growth medium was removed and cells washed once with HBSS pre-warmed to 37°C. […] Buffer was then removed from each well, cells washed once in HBSS and fresh HBSS added at room temperature. Plates were immediately imaged using an ImageXpress Ultra confocal plate reader, which captured four central images per well using a Plan Fluor 40× NA0.6 extra-long working distance objective. CA200645 was excited at 635 nm and emission collected through a 640–685 nm band pass filter. Total image intensity was obtained using a multiwave length cell scoring algorithm within MetaXpress software (Molecular Devices).
Time course experiments were fitted using a one phase association equation which is as follows [drawing 2] where Yo represents the level of internalization at time (t) equal to zero, Plateau is the maximal internalization at infinite time and K is the rate constant in […]. Statistical significance was determined by Student's unpaired t-test or by one-way ANOVA with Dunnett's post hoc analysis and P < 0.05 was considered statistically significant.

The target in experiment [3] is T2, SNAP-A3 W243F (Homo sapiens, UniProt P0DMS8, W243F).
T2 construct: the methionine start signal was removed from cDNA encoding the full length A3; expressed in transfected cells; host or cells: CHO CRE-SPAP, transient (Fugene HD)
T2 sequence (P0DMS8 2-318 W243F limits assumed): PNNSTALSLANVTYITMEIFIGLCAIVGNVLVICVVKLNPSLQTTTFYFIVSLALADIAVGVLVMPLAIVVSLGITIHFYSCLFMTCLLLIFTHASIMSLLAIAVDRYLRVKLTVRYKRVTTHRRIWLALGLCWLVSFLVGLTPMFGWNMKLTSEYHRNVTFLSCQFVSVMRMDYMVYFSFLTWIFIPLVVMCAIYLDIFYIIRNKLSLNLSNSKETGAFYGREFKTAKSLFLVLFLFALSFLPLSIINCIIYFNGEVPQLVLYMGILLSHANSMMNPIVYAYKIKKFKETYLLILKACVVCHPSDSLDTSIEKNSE
Nature of the experiment: Confocal imaging of SNAP-tagged receptor internalization, SNAP-A3 W243F. The experiment is classed as cell-based. Conditions: SNAP-A3 W243F transiently expressed in CHO CRE-SPAP cells, BG-AF488 label, 10 μM agonist. On the procedure: CHO-K1 cells stably expressing a cAMP response element-secreted placental alkaline phosphatase (CRE-SPAP) reporter gene (CHO CRE-SPAP) under hygromycin selectivity and CHO-K1 cells stably expressing β-arrestin2-vYnL (CHO β-arrestin2-vYnL, a gift from Dr. N. Holliday, University of Nottingham, Nottingham, UK) were maintained in DMEM/F12 medium containing 10% FCS and 2 mM L-glutamine at 37°C in a humidified atmosphere of air/CO2 (19:1). […] Cell lines were initially screened for YFP or bimolecular fluorescence complementation (BiFC) fluorescence and CRE-SPAP cells lines were subsequently tested in the CRE-SPAP gene transcription assay. […]
Live-cell BiFC imaging was performed on A3-vYc/β-arrestin2-vYnL and A3 W243F-vYc/β-arrestin2-vYnL cells grown in Nunc Labtek 8-well plates, and images obtained using a Zeiss 710 confocal microscope (Carl Zeiss GmbH, Jena, Germany) fitted with a 63× plan-Apochromat NA1.4 Ph3 oil-immersion objective. […] For both YFP, BiFC and BG-AF488 label, a 488 nm argon laser was used to excite the fluorophore and emission was detected using a BP505-530 filter. […] Images of A3-YFP and A3 W243F-YFP cells were taken with same pinhole diameter, laser power, gain and offset to allow comparison of YFP fluorescence. To obtain fluorescence intensity values, a region of interest was drawn around the plasma membrane of 10 cells per image in Zeiss AIM 4.2 software (Carl Zeiss GmbH).

Regarding `CCCCC#Cc1nc(NC)c2ncn([C@@H]3O[C@H](CO)[C@@H](O)[C@H]3O)c2n1` [HEMADO, 2-(1-hexynyl)-N-methyladenosine], in experiment [1] (A3 W243F-YFP cells, 5 min stimulation, read-out: pEC50 (pERK1/2 assay) (converted)), the EC50 was 19.5 nM. In addition, the Emax in experiment [1] (read-out: Maximum response (% 10 μM NECA), pERK1/2 assay) was 16 ± 3.1%. The Ki in experiment [2] is 45.7 nM. The “internalization of SNAP-tagged receptor seen in confocal images” value in experiment [3] was “did not result in any clear change in the localization”.
Turning to `CCNC(=O)[C@H]1O[C@@H](n2cnc3c(N)ncnc32)[C@H](O)[C@@H]1O` [NECA, 5-(N-ethylcarboxamido)adenosine], in experiment [3], the “internalization of SNAP-tagged receptor seen in confocal images” value is listed as “retained the ability to cause internalization”.
